Measured values taken from US5126336A, “Antibiotic C-3 catechol-substituted cephalosporin compounds, compositions and method of use thereof” (Bristol-Myers Squibb Company, priority 1990, dated 1992).
Converted amounts (≈) assume the structure as drawn. Where two headings read alike, the source gives them in different places.

Columns and labels:
[1] = system: Gp-Ia: Penicillin(PC)-sensitive S. aureus (5 strains); assay: MIC, two-fold serial agar dilution, Gp-Ia; format: cell-based; conditions: for MIC: Staphylococcus aureus, read-out: Geometric mean of MIC
Method: (§1) Minimum inhibitory concentrations (MICs) of the present series of cephalosporins were determined against 32 strains of test organisms by two-fold serial agar dilution method in Mueller-Hinton agar. Geometric means of MICs were calculated against six groups of the test organisms which are classified as follows and summarized in Table 1.
Gp-Ia Penicillin(PC)-sensitive S. aureus (5 strains).

[2] = system: Gp-Ib: Penicillin(PC)-resistant S. aureus (5); assay: MIC, two-fold serial agar dilution, Gp-Ib; format: cell-based; conditions: 5 strains; for MIC: Staphylococcus aureus, read-out: Geometric mean of MIC
Method: as §1
Gp-Ib Penicillin(PC)-resistant S. aureus (5).

E. coli Juhl A15119 = assay: MIC, agar dilution; format: cell-based; conditions: E. coli Juhl (Table 3)
Method: as §1
(§2) In vivo antibacterial activity was determined against three bacterial infections (S. aureus Smith, E. coli Juhl and P. aeruginosa A9843A) by intramuscular administration to mice just after the bacterial challenge. PD50 values are summarized in Table 3 in comparsion with the MIC values against the corresponding organisms.
(§3) Medium; MuellerHinton agar (pH = 7.2)
(§4) Incubation temperature: 32° C., 18 hr
(§5) Inoculum size; 10^6 cells/ml

S. aureus Smith [3] = assay: MIC, agar dilution; format: cell-based; conditions: S. aureus Smith (Table 3)
Method: as §1, §2, §3, §4, §5

P. aeruginosa A9843A [4] = assay: MIC, agar dilution; format: cell-based
Method: as §1, §2, §3, §4, §5

[5] = system: Gn-III: Ps. aeruginosa (7); assay: MIC, two-fold serial agar dilution, Gn-III; format: cell-based; conditions: for MIC: Pseudomonas aeruginosa, read-out: Geometric mean of MIC
Method: as §1
Gn-III Ps. aeruginosa (7).

E. coli Juhl = assay: In vivo antibacterial activity, E. coli Juhl infection; conditions: mice, im just after bacterial challenge; for ED50: Escherichia coli, read-out: PD50
Method: as §2

P. aeruginosa A9843A [6] = assay: In vivo antibacterial activity, P. aeruginosa A9843A infection; design: species or system mice; conditions: for ED50: Pseudomonas aeruginosa, A9843A, in Mus musculus, im, read-out: PD50
Method: as §2

S. aureus Smith [7] = assay: In vivo antibacterial activity, S. aureus Smith infection; conditions: mice, im just after bacterial challenge; for ED50: Staphylococcus aureus, read-out: PD50
Method: as §2

[8] = system: Gn-Ia: Cephalothin(CET)-sensitive E. coli (2), Kl. pneumoniae (1) and Pr. mirabilis (2); assay: MIC, two-fold serial agar dilution, Gn-Ia; format: cell-based; conditions: 5 strains; for MIC: read-out: Geometric mean of MIC
Method: as §1
Gn-Ia Cephalothin(CET)-sensitive E. coli (2), Kl.
pneumoniae (1) and Pr. mirabilis (2).

[9] = system: Gn-Ib: Cephalothin(CET)-resistant E. coli (3) and Kl. pneumoniae (2); assay: MIC, two-fold serial agar dilution, Gn-Ib; format: cell-based; conditions: for MIC: Escherichia coli
Method: as §1
Gn-Ib Cephalothin(CET)-resistant E. coli (3) and Kl.

[10] = system: Gn-II: M.morganii (1), Ent. cloacae (2) and Ser. marcescens (2); assay: MIC, two-fold serial agar dilution, Gn-II; format: cell-based; conditions: for MIC: read-out: Geometric mean of MIC
Method: as §1
Gn-II M.morganii (1), Ent. cloacae (2) and Ser.

[11] = Escherichia coli, JUHLA15119, 18 h, read-out: MIC
[12] = Staphylococcus aureus, 18 h, read-out: MIC
[13] = Pseudomonas aeruginosa, A9843A, 18 h
[14] = Gn-III, 7 strains, Mueller-Hinton agar
[15] = read-out: Geometric mean of MIC, Gn-Ib, 5 strains, Mueller-Hinton agar
[16] = Gn-II, 5 strains, Mueller-Hinton agar
[17] = read-out: Geometric mean of MIC, second run, Gn-Ib, 5 strains

| Compound | MIC ([1]; Mueller-Hinton agar) | MIC ([2]; Mueller-Hinton agar) | MIC (E. coli Juhl A15119; [11]) | MIC (S. aureus Smith [3]; [12]) | MIC (P. aeruginosa A9843A [4]; [13]) | MIC [5, 14] | ED50 (E. coli Juhl) | ED50 (P. aeruginosa A9843A [6]) | ED50 (S. aureus Smith [7]) | MIC ([8]; Mueller-Hinton agar) | MIC [9, 15] | MIC [10] | MIC ([1]; second run) | MIC ([2]; second run) | MIC ([5]; second run, Gn-III, 7 strains) | MIC ([8]; second run) | MIC [9, 17] | Geometric mean of MIC ([10]; second run, Gn-II, 5 strains) | further results |
| --- | --- | --- | --- | --- | --- | --- | --- | --- | --- | --- | --- | --- | --- | --- | --- | --- | --- | --- | --- |
| CO/N=C(\C(=O)NC1C(=O)N2C(C(=O)[O-])=C(/C=C\C[N+]3(C)Cc4cc(O)c(O)cc4C3)CS[C@H]12)c1csc(N)n1 (stereo partly drawn) [Compound Ie, 7-[(Z)-2-(2-amino-thiazol-4-yl)-2-methoxyiminoacetamido]-3-[(Z)-3-(5,6-dihydroxy-2-methyl-2-isoindolinio)-1-propen-1-yl]-3-cephem-4-carboxylate] | 4.7 µg/mL (≈ 8.01 µM) | 6.3 µg/mL (≈ 10.7 µM) | 0.2 µg/mL (≈ 0.341 µM) | 6.3 µg/mL (≈ 10.7 µM) | 3.1 µg/mL (≈ 5.28 µM) | 2.9 µg/mL (≈ 4.94 µM) | 0.025 mg/kg | 9.9 mg/kg | 0.72 mg/kg | 0.13 µg/mL (≈ 0.222 µM) | 0.26 µg/mL (≈ 0.443 µM) | – | – | – | – | – | – | – | MIC [10, 16]: 0.91 µg/mL (≈ 1.55 µM) |
| CC(C)(O/N=C(\C(=O)NC1C(=O)N2C(C(=O)[O-])=C(/C=C\C[N+]3(C)Cc4cc(O)c(O)cc4C3)CS[C@H]12)c1csc(N)n1)C(=O)O (stereo partly drawn) [Compound Ib, 7-[(Z)-2-(2-aminothiazol-4-yl)-2-(1-carboxy-1-methylethoxy-imino)acetamido]-3-[(Z)-3-(5,6-dihydroxy-2-methyl-2-isoindolinio)-1-propen-1-yl]-3-cephem-4-carboxylate] | 25 µg/mL (≈ 38 µM) | 50 µg/mL (≈ 75.9 µM) | 0.8 µg/mL (≈ 1.21 µM) | 25 µg/mL (≈ 38 µM) | 1.6 µg/mL (≈ 2.43 µM) | 1.4 µg/mL (≈ 2.13 µM) | 0.1 mg/kg | 2 mg/kg | 3.8 mg/kg | 0.46 µg/mL (≈ 0.698 µM) | 0.26 µg/mL (≈ 0.395 µM) | 0.91 µg/mL (≈ 1.38 µM) | – | – | – | – | – | – | – |
| CC(C)(O/N=C(\C(=O)NC1C(=O)N2C(C(=O)[O-])=C(/C=C/C[N+]3(C)Cc4cc(O)c(O)cc4C3)CSC12)c1csc(N)n1)C(=O)O (stereo not drawn) [Compound Ia, 7-[(Z)-2-(2-Aminothiazol-4-yl)-2-(1-carboxy-1-methylethoxy-imino)acetamido]-3-[(E)-3-(5,6-dihydroxy-2-methyl-2-iso-indolinio)-1-propen-1-yl]-3-cephem-4-carboxylate] | 12.5 µg/mL (≈ 19 µM) | 12.5 µg/mL (≈ 19 µM) | 0.8 µg/mL (≈ 1.21 µM) | 12.5 µg/mL (≈ 19 µM) | 1.6 µg/mL (≈ 2.43 µM) | 1.3 µg/mL (≈ 1.97 µM) | 0.008 mg/kg | 2 mg/kg | 0.86 mg/kg | 0.2 µg/mL (≈ 0.304 µM) | 0.23 µg/mL (≈ 0.349 µM) | 0.69 µg/mL (≈ 1.05 µM) | 13 µg/mL (≈ 19.7 µM) | 13 µg/mL (≈ 19.7 µM) | 0.33 µg/mL (≈ 0.501 µM) | 0.23 µg/mL (≈ 0.349 µM) | 0.23 µg/mL (≈ 0.349 µM) | 0.69 µg/mL | – |
| CC(C)(O/N=C(\C(=O)NC1C(=O)N2C(C(=O)O)=C(/C=C/Cn3ccc4cc(=O)c(O)cc-4c3)CS[C@H]12)c1csc(N)n1)C(=O)O (stereo partly drawn) [Iv, 7-[(Z)-2-(2-Aminothiazol-4-yl)-2-(1-carboxy-1-methylethoxyimino)acetamido]-3-[(E)-3-(2,6-dihydro-7-hydroxy-6-oxo-isoquinolin-2-yl)-1-propen-1-yl]-3-cephem-4-carboxylic acid] | 12.5 µg/mL (≈ 19.1 µM) | 16 µg/mL (≈ 24.4 µM) | 0.1 µg/mL (≈ 0.153 µM) | 12.5 µg/mL (≈ 19.1 µM) | 0.1 µg/mL (≈ 0.153 µM) | – | 0.019 mg/kg | 0.17 mg/kg | 0.98 mg/kg | 0.017 µg/mL (≈ 0.026 µM) | 0.0072 µg/mL (≈ 0.011 µM) | 0.076 µg/mL (≈ 0.116 µM) | 16 µg/mL (≈ 24.4 µM) | 16 µg/mL (≈ 24.4 µM) | 0.15 µg/mL (≈ 0.229 µM) | 0.0094 µg/mL (≈ 0.0144 µM) | 0.0083 µg/mL (≈ 0.0127 µM) | 0.076 µg/mL | MIC [5]: 0.11 µg/mL (≈ 0.168 µM) |
| CO/N=C(\C(=O)NC1C(=O)N2C(C(=O)[O-])=C(/C=C/C[N+]3(C)Cc4cc(O)c(O)cc4C3)CS[C@H]12)c1csc(N)n1 (stereo partly drawn) [Compound Id, 7-[(Z)-2-(2-aminothiazol-4-yl)-2-methoxyiminoacetamido]-3-[(E)-3-(5,6-dihydroxy-2-methyl-2-isoindolinio)-1-propen-1-yl]-3-cephem-4-carboxylate] | 1.6 µg/mL (≈ 2.73 µM) | 3.1 µg/mL (≈ 5.28 µM) | 0.4 µg/mL (≈ 0.682 µM) | 1.6 µg/mL (≈ 2.73 µM) | 3.1 µg/mL (≈ 5.28 µM) | 2.6 µg/mL (≈ 4.43 µM) | 0.012 mg/kg | 6.8 mg/kg | 0.33 mg/kg | 0.15 µg/mL (≈ 0.256 µM) | 0.46 µg/mL (≈ 0.784 µM) | 0.79 µg/mL (≈ 1.35 µM) | – | – | – | – | – | – | – |
| CO/N=C(\C(=O)NC1C(=O)N2C(C(=O)O)=C(/C=C/Cn3ccc4cc(=O)c(O)cc-4c3)CS[C@H]12)c1csc(N)n1 (stereo partly drawn) [Iw, 7-[(Z)-2-(2-Aminothiazol-4-yl)-2-methoxyimino-acetamido]-3-[(E)-3-(2,6-dihydro-7-hydroxy-6-oxo-isoquino-lin-2-yl)-1-propen-1-yl]-3-cephem-4-carboxylic acid] | – | – | – | – | – | – | – | – | – | – | – | – | – | – | – | – | – | – | Geometric mean of MIC ([1]; Mueller-Hinton agar): 0.8 µg/mL; Geometric mean of MIC ([2]; Mueller-Hinton agar): 1.4 µg/mL; MIC (E. coli Juhl A15119): 0.1 µg/mL (≈ 0.172 µM); MIC (S. aureus Smith [3]): 0.8 µg/mL (≈ 1.37 µM); MIC (P. aeruginosa A9843A [4]; P. aeruginosa 9843A (Table 3)): 12.5 µg/mL (≈ 21.5 µM); Geometric mean of MIC [5, 14]: 13.0 µg/mL; PD50 (E. coli Juhl): 0.19 mg/kg; PD50 (P. aeruginosa A9843A [6]; mice, im just after bacterial challenge, P. aeruginosa 9843A): 0.39 mg/kg; PD50 (S. aureus Smith [7]): 0.18 mg/kg; Geometric mean of MIC ([8]; Mueller-Hinton agar): 0.015 µg/mL; Geometric mean of MIC ([9]; Gn-Ib, 5 strains, Mueller-Hinton agar): 0.022 µg/mL; Geometric mean of MIC [10, 16]: 0.13 µg/mL |
